Experimental data taken from patent US20070208011A1, “Supersaturated Benzodiazepine Solutions and Their Delivery” (priority 2005, published 2007).
Where two headings read alike, the source gives them in different places.

Experiments:
[1] = Nasal administration of diazepam and midazolam preparations in two healthy volunteers; settings: for Nasal Discomfort / Nasal Discomfort (maximum): subject self-rating, IN 5 mg dose, n = 2
Procedure: Approximately 0.5 ml (2.5 mg) was dripped into each nostril over a period of 30 seconds.

[2] = cited from earlier work
[3] = rectal, published data (Cloyd et al, Epilepsia 1998); cited from earlier work
[4] = DZP permeation through blank filter; settings: S from 1 to 6, 30/70 GF/AB vehicle, blank filters
[5] = Diffusion studies through silicone membranes (Franz diffusion cell); settings: for Steady State Flux / Time Lag / Transference: 75 μm silicone membrane
[6] = Comparison of intranasal with published rectal diazepam concentration-time course
patients with SE = settings: intravenous, given within 30 minutes of the onset of SE; cited from earlier work
[7] = in vivo; cited from earlier work
[8] = Lipid-solubility (octanol/water ratio) of benzodiazepines; settings: from Table 1
clinical = settings: human, plasma, inhaled or intranasal, 5 mg
[9] = cited from earlier work; remark: listed apart in the source
MDCKII-WT cells = test system: MDCKII-WT cells
Procedure: (§1) Maden Darby Canine Kidney II wild type (MDCKII-WT) cells were seeded at 43,000 cells/cm^2 on six-well polyester membrane inserts (Transwell®) with a pore size of 0.4 μm. Cells were maintained in Dulbecco's modified Eagle's medium supplemented with 10% fetal bovine serum and 1% penicillin and streptomycin at 37° C. in a humidified incubator with 5% CO2. Media were changed every other day, and cell monolayers were cultured for 4 days before use.
Viability of MDCKII-WT cells was measured by incubating the cells in suspension for 30, 60, and 120 min in various GF/buffer compositions at 37° C. Trypan blue dye was then added into the cell suspension, and incubated for 10 min. A sample was drawn from the suspension and spread on a hemocytometer, and counts of live (transparent) and dead (blue) cells were made.

MDCKII-WT cell monolayer [10] = settings: 0-50% GF with assay buffer, over 30 min
Procedure: as §1

MDCKII-WT cell monolayer [11] = test system: MDCKII-WT cell monolayer
MDCKII-WT cell monolayer [12] = settings: GF 0 to 50 vol % in upstream vehicle
[13] = human, blood, other: intranasal, 5 mg
[14] = buccal, 5 mg commercial parenteral MDZ, 8 healthy volunteers

## CN1C(=O)CN=C(c2ccccc2)c2cc(Cl)ccc21 [DZP, diazepam]
[1]
  Nasal Discomfort: 1.5
  Nasal Discomfort (maximum): 6.8
[2]; rectal, adults
  time to peak concentrations: 15 to 45 min
[2]; rectal, children
  time to peak concentrations: 5 to 10 min
[3]
  time to maximum concentration: 45 min
[4]
  steady state flux as a function of degree of saturation S: increased linearly with increasing degree of saturation
[5]; S=0.5-6.25, 50:50 GF/water, silicone membrane
  steady state flux as a function of degree of saturation S: increased nearly linearly with increasing degree of saturation
[5]; S=1, 30% GF
  Steady State Flux: 0.823 ± 0.030 μg/(cm^2 · min)
  Time Lag: 1.876 ± 0.165 min
  Transference: 0.823 ± 0.030 μg/(cm^2 · min)
[5]; S=1, 40% GF
  Steady State Flux: 0.826 ± 0.019 μg/(cm^2 · min)
  Time Lag: 1.793 ± 0.020 min
  Transference: 0.826 ± 0.019 μg/(cm^2 · min)
[5]; S=1, 50% GF
  Steady State Flux: 0.824 ± 0.011 μg/(cm^2 · min)
  Time Lag: 1.842 ± 0.119 min
  Transference: 0.824 ± 0.011 μg/(cm^2 · min)
[5]; S=3, 30% GF
  Steady State Flux: 2.309 ± 0.070 μg/(cm^2 · min)
  Time Lag: 1.806 ± 0.135 min
  Transference: 0.770 ± 0.023 μg/(cm^2 · min)
[5]; S=3, 40% GF
  Steady State Flux: 2.310 ± 0.055 μg/(cm^2 · min)
  Time Lag: 1.787 ± 0.091 min
  Transference: 0.770 ± 0.018 μg/(cm^2 · min)
[5]; S=3, 50% GF
  Steady State Flux: 2.321 ± 0.095 μg/(cm^2 · min)
  Time Lag: 1.755 ± 0.134 min
  Transference: 0.774 ± 0.032 μg/(cm^2 · min)
[6]; nasal, 5 mg
  time to maximum concentration: 28 min
[6]; rectally, published data adjusted from 15 mg to 5 mg assuming linear pharmacokinetics
  peak concentration: 128 ng/mL

## O=C1Nc2ccc(Cl)cc2C(c2ccccc2Cl)=NC1O (stereo not shown) [LZP, lorazepam]
Patients with SE
  effective in patients: 60-80%
[7]
  Elimination T½: 480 to 1500 min
  First-pass Effect: Low
[2]; rectal
  time of peak plasma concentrations: 75 min
[8]
  lipid-solubility relative to DZP and MDZ: ⅕

## Cc1ncc2n1-c1ccc(Cl)cc1C(c1ccccc1F)=NC2 [MDZ, midazolam]
[1]; IN commercial formulations: DZP solvents 40% propylene glycol and 10% ethanol, MDZ pH=3
  nasal discomfort (in words): significant discomfort
[1]; [13]
  Tmax: 20 min
  bioavailability: 67.5%
[1]
  Nasal Discomfort: 1.0
  Nasal Discomfort (maximum): 6.0
clinical
  Cmax: 64.6 ng/mL
  bioavailability: 97.9%
[9]; at pH = 3
  Lipid-solubility (Octanol/Water Ratio): at pH = 3: 34
[9]; at pH = 7.5
  Lipid-solubility (Octanol/Water Ratio): at pH = 7.5: 475
[7]
  Elimination T½: 30 to 240 min
  First-pass Effect: High
[2]; IM injection
  time to pharmacological effect comparable to IV diazepam: ≤ 15 minutes
[2]; IM
  time to peak serum concentrations: 20 to 30 min
[2]; [14]
  average bioavailability: 75%
  time to peak serum concentrations: 15 to 90 min
[2]; rectal
  bioavailability: 15-30 % of a dose

## tetrahydrofurfuryl alcohol polyethyleneglycol ether [GF]
MDCKII-WT cells; 30 min treatment, GF up to 50 vol %
  viable cells: more than 90%
MDCKII-WT cells; 1 h exposure, GF compositions above 30%
  cell viability: marked decease in cell viability
MDCKII-WT cells; 2 h exposure, GF compositions equal to or more than 20%
  lethality: 100%
MDCKII-WT cell monolayer [10]
  TEER values: > 100 Ω·cm2
MDCKII-WT cell monolayer [11]; GF/AB cosolvent mixtures, 0 to 50 vol % GF
  effect of GF content on permeability of mannitol: permeability of mannitol increases
MDCKII-WT cell monolayer [11]; all GF/AB cosolvent systems (0-50 vol % GF), t=30 min
  percentage mass transported of mannitol: below 5%
MDCKII-WT cell monolayer [12]
  effect of GF content on transference of DZP through MDCK cell monolayer: transference increased with increasing GF content
